Laboratory results from ChEMBL document CHEMBL1126377, “Synthesis of 9-[2-(phosphonomethoxy)ethylamino]adenine and 9-[(phosphonomethoxy)acetamido]adenine, analogues of a potent anti-HIV acyclonucleotide” (Bioorg Med Chem Lett, 1992).
Active and inactive are the calls of the source. No cut-off for these calls is given here.

Experiments:
Assay type in all cases: functional, organism-based
[1] = test system: Human alphaherpesvirus 3; assay: Effect on replication of varicella zoster virus at a concentration of 300 uM; NE=No effect
[2] = test system: Human alphaherpesvirus 2; assay: Effect on replication of herpes simplex virus type 2 at a concentration of 300 uM; NE=No effect
[3] = test system: Cytomegalovirus; assay: Effect on replication of cytomegalovirus at a concentration of 300 uM; NE=No effect
[4] = test system: Human alphaherpesvirus 1; assay: Effect on replication of herpes simplex virus type 1 at a concentration of 300 uM; NE=No effect
[5] = test system: Human immunodeficiency virus 1; assay: Inhibition of the replication of human immunodeficiency virus (HIV) at 10 uM concentration; NE=No effect
[6] = test system: Human immunodeficiency virus 1; assay: Inhibition of the replication of human immunodeficiency virus (HIV) at 10 uM concentration

| Compound | Activity [1] | Activity [2] | Activity [3] | Activity [4] | Activity [5] | IC50 [6] |
| --- | --- | --- | --- | --- | --- | --- |
| Nc1ncnc2c1ncn2NCCOCP(=O)(O)O | inactive | inactive | inactive | inactive | inactive |  |
| Nc1ncnc2c1ncn2OCCOCP(=O)(O)O |  |  |  |  |  | 0.3 µM |
| Nc1ncnc2c1ncn2OCC/C=C/P(=O)(O)O |  |  |  |  |  | 10 µM |
| Nc1ncnc2c1ncn2NC(=O)COCP(=O)(O)O | inactive | inactive | inactive | inactive | inactive |  |
